Drawing on patent publication US9670227B2, “Thienopyrimidine derivatives, a process for their preparation and pharmaceutical compositions containing them” (LES LABORATOIRES SERVIER, priority 2013, dated 2017), this text covers IC50 for 14 compounds.

Where two headings read alike, the source gives them in different places.

Test [1] has as its system H929 multiple myeloma tumour line. The experiment in a line: In vitro cytotoxicity, Microculture Tetrazolium Assay. In kind it is cell-based. The conditions noted are these: read-out: IC50 (μM) MTT H929. Here is the method: The cytotoxicity studies were carried out on the H929 multiple myeloma tumour line.
The cells are distributed onto microplates and exposed to the test compounds for 48 hours.

The next test deals with Mcl-1 protein (UniProtKB primary accession number: Q07820) (Homo sapiens, UniProt Q07820). Briefly: Inhibition of Mcl-1 by fluorescence polarisation, Method 1. Type of test: binding. The conditions noted are these: fluorescence polarisation test, Method 2 values are underlined in the patent (underlining not visible here). In a few lines:
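An 11-point DMSO dilution of compound is mixed with buffer (10 mM HEPES, 150 mM NaCl, 0.05% Tween 20, pH 7.4) carrying 1 nM fluorescein-labelled ligand and 5 nM Mcl-1, final concentrations. Displacement is monitored by fluorescence polarisation.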

Where [2] appears, read: Homo sapiens, NCI-H929, 48 h, H929 cells, 48 hours exposure, MTT.

Chain of Mcl-1 protein (Q07820 whole entry): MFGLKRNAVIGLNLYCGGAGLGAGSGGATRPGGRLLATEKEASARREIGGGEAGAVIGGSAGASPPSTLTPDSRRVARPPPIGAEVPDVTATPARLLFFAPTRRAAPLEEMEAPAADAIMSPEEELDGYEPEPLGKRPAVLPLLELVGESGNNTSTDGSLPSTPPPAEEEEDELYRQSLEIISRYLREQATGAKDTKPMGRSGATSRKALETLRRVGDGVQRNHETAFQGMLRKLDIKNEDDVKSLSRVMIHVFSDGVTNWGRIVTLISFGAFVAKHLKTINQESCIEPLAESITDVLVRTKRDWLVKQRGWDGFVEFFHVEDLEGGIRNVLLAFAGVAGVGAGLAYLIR

`Cc1c(-c2c(-c3ccc(Cl)o3)sc3ncnc(OC(Cc4ccccc4OCc4cocn4)C(=O)O)c23)ccc(OCCN2CCN(C)CC2)c1Cl` [Example 376, (2R)-2-{[6-(5-chlorofuran-2-yl)-(5Sa)-5-{3-chloro-2-methyl-4-[2-(4-methylpiperazin-1-yl)ethoxy]phenyl}thieno[2,3-d]pyrimidin-4-yl]oxy}-3-[2-(1,3-oxazol-4-ylmethoxy)phenyl]propanoic acid]: the IC50 in test [1] (setting [2]) amounted to 0.076 µM; on Mcl-1 protein (read-out: IC50 (M) Mcl-1 FP), 2e-09 M.

Consider `Cc1c(-c2c(-c3ccc(Cl)o3)sc3ncnc(OC(Cc4ccccc4OCC4CCCO4)C(=O)O)c23)ccc(OCCN2CCN(C)CC2)c1Cl` [Example 377, (2R)-2-{[6-(5-chlorofuran-2-yl)-(5Sa)-5-{3-chloro-2-methyl-4-[2-(4-methylpiperazin-1-yl)ethoxy]phenyl}thieno[2,3-d]pyrimidin-4-yl]oxy}-3-{2-[(2S)-tetrahydrofuran-2-ylmethoxy]phenyl}propanoic acid], for which the IC50 in test [1] (H929 cells, 48 hours exposure, MTT) is 0.047 µM; at Mcl-1 protein (read-out: IC50 (M) Mcl-1 FP), 3.8e-09 M.

Regarding `COc1cc(-c2sc3ncnc(OC(Cc4ccccc4OC)C(=O)O)c3c2-c2ccc(OCCN3CCN(C)CC3)c(Cl)c2C)ccc1F` [Example 378, (2R)-2-{[(5Sa)-5-{3-chloro-2-methyl-4-[2-(4-methylpiperazin-1-yl)ethoxy]phenyl}-6-(4-fluoro-3-methoxyphenyl)thieno[2,3-d]pyrimidin-4-yl]oxy}-3-(2-methoxyphenyl)propanoic acid], the IC50 in test [1] (setting [2]) was 0.202 µM; on Mcl-1 protein (read-out: IC50 (M) Mcl-1 FP), 3.2e-09 M.

Consider `COc1cc(-c2sc3ncnc(OC(Cc4ccccc4OCC4CCCO4)C(=O)O)c3c2-c2ccc(OCCN3CCN(C)CC3)c(Cl)c2C)ccc1F` [Example 379, (2R)-2-{[(5Sa)-5-{3-chloro-2-methyl-4-[2-(4-methylpiperazin-1-yl)ethoxy]phenyl}-6-(4-fluoro-3-methoxyphenyl)thieno[2,3-d]pyrimidin-4-yl]oxy}-3-{2-[(2R)-tetrahydrofuran-2-ylmethoxy]phenyl}propanoic acid], for which the IC50 in test [1] (setting [2]) came out at 0.174 µM; at Mcl-1 protein (read-out: IC50 (M) Mcl-1 FP), 1.3e-08 M.

As for `COc1cc(-c2sc3ncnc(OC(Cc4ccccc4OCC(F)(F)F)C(=O)O)c3c2-c2ccc(OCCN3CCN(C)CC3)c(Cl)c2C)ccc1F` [Example 380, (2R)-2-{[(5Sa)-5-{3-chloro-2-methyl-4-[2-(4-methylpiperazin-1-yl)ethoxy]phenyl}-6-(4-fluoro-3-methoxyphenyl)thieno[2,3-d]pyrimidin-4-yl]oxy}-3-[2-(2,2,2-trifluoroethoxy)phenyl]propanoic acid], the figures for the IC50 (in test [1] (setting [2]); on Mcl-1 protein (read-out: IC50 (M) Mcl-1 FP)) were 0.162 µM and 1.1e-08 M, respectively.

Consider `COc1cc(-c2sc3ncnc(OC(Cc4ccccc4OCc4ccccn4)C(=O)O)c3c2-c2ccc(OCCN3CCN(C)CC3)c(Cl)c2C)ccc1F` [Example 381, (2R)-2-{[(5Sa)-5-{3-chloro-2-methyl-4-[2-(4-methylpiperazin-1-yl)ethoxy]phenyl}-6-(4-fluoro-3-methoxyphenyl)thieno[2,3-d]pyrimidin-4-yl]oxy}-3-[2-(pyridin-2-ylmethoxy)phenyl]propanoic acid], for which the IC50 amounted to 0.119 µM in test [1] (setting [2]) and 1.3e-08 M at Mcl-1 protein (read-out: IC50 (M) Mcl-1 FP).

Take `COc1cc(-c2sc3ncnc(OC(Cc4ccccc4OCc4ccnc(C(F)(F)F)n4)C(=O)O)c3c2-c2ccc(OCCN3CCN(C)CC3)c(Cl)c2C)ccc1F` [Example 382, (2R)-2-{[(5Sa)-5-{3-chloro-2-methyl-4-[2-(4-methylpiperazin-1-yl)ethoxy]phenyl}-6-(4-fluoro-3-methoxyphenyl)thieno[2,3-d]pyrimidin-4-yl]oxy}-3-(2-{[2-(trifluoromethyl)pyrimidin-4-yl]methoxy}phenyl)propanoic acid]: the IC50 in test [1] (setting [2]) is 0.033 µM; at Mcl-1 protein (read-out: IC50 (M) Mcl-1 FP), 7.1e-09 M.

As to `COc1nccc(COc2ccccc2CC(Oc2ncnc3sc(-c4ccc(F)c(OC)c4)c(-c4ccc(OCCN5CCN(C)CC5)c(Cl)c4C)c23)C(=O)O)n1` [Example 383, (2R)-2-{[(5Sa)-5-{3-chloro-2-methyl-4-[2-(4-methylpiperazin-1-yl)ethoxy]phenyl}-6-(4-fluoro-3-methoxyphenyl)thieno[2,3-d]pyrimidin-4-yl]oxy}-3-{2-[(2-methoxypyrimidin-4-yl)methoxy]phenyl}propanoic acid], the IC50 in test [1] (setting [2]) was found to be 0.03 µM; at Mcl-1 protein (read-out: IC50 (M) Mcl-1 FP), 5.6e-09 M.

For the compound `CCn1nccc1COc1ccccc1CC(Oc1ncnc2sc(-c3ccc(F)c(OC)c3)c(-c3ccc(OCCN4CCN(C)CC4)c(Cl)c3C)c12)C(=O)O` [Example 384, (2R)-2-{[(5Sa)-5-{3-chloro-2-methyl-4-[2-(4-methylpiperazin-1-yl)ethoxy]phenyl}-6-(4-fluoro-3-methoxyphenyl)thieno[2,3-d]pyrimidin-4-yl]oxy}-3-{2-[(1-ethyl-1H-pyrazol-5-yl)methoxy]phenyl}propanoic acid], the values for the IC50 (in test [1] (setting [2]); on Mcl-1 protein (read-out: IC50 (M) Mcl-1 FP)) were 0.053 µM and 3.8e-09 M, respectively.

For the compound `CCCn1nccc1COc1ccccc1CC(Oc1ncnc2sc(-c3ccc(F)c(OC)c3)c(-c3ccc(OCCN4CCN(C)CC4)c(Cl)c3C)c12)C(=O)O` [Example 385, (2R)-2-{[(5Sa)-5-{3-chloro-2-methyl-4-[2-(4-methylpiperazin-1-yl)ethoxy]phenyl}-6-(4-fluoro-3-methoxyphenyl)thieno[2,3-d]pyrimidin-4-yl]oxy}-3-{2-[(1-propyl-1H-pyrazol-5-yl)methoxy]phenyl}propanoic acid], the half-maximal inhibitory concentration (IC50) in test [1] (setting [2]) was determined as 0.048 µM; on Mcl-1 protein (read-out: IC50 (M) Mcl-1 FP) it was 3.5e-09 M.

For `COc1cc(-c2sc3ncnc(OC(Cc4ccccc4OCc4cnccn4)C(=O)O)c3c2-c2ccc(OCCN3CCN(C)CC3)c(Cl)c2C)ccc1F` [Example 386, (2R)-2-{[(5Sa)-5-{3-chloro-2-methyl-4-[2-(4-methylpiperazin-1-yl)ethoxy]phenyl}-6-(4-fluoro-3-methoxyphenyl)thieno[2,3-d]pyrimidin-4-yl]oxy}-3-[2-(pyrazin-2-ylmethoxy)phenyl]propanoic acid], the IC50 is 0.075 µM in test [1] (setting [2]) and 1e-08 M at Mcl-1 protein (read-out: IC50 (M) Mcl-1 FP).

On to `COCCOc1ccccc1CC(Oc1ncnc2sc(-c3ccc(F)c(OC)c3)c(-c3ccc(OCCN4CCN(C)CC4)c(Cl)c3C)c12)C(=O)O` [Example 387, (2R)-2-{[(5Sa)-5-{3-chloro-2-methyl-4-[2-(4-methylpiperazin-1-yl)ethoxy]phenyl}-6-(4-fluoro-3-methoxyphenyl)thieno[2,3-d]pyrimidin-4-yl]oxy}-3-[2-(2-methoxyethoxy)phenyl]propanoic acid], for which the IC50 in test [1] (Homo sapiens, NCI-H929, 48 h) amounted to 0.202 µM; on Mcl-1 protein (IC50 (M) Mcl-1 FP) it was 4e-09 M.

As to `CCc1sc2ncnc(OC(Cc3ccccc3)C(=O)O)c2c1-c1ccc(OCC(=O)N(C)C)c(Cl)c1C` [Example 390, (2R)-2-[((5Sa)-5-{3-chloro-4-[2-(dimethylamino)-2-oxoethoxy]-2-methylphenyl}-6-ethylthieno[2,3-d]pyrimidin-4-yl)oxy]-3-phenylpropanoic acid], the IC50 is 20 µM in test [1] (setting [2]) and 4e-08 M on Mcl-1 protein (read-out: IC50 (M) Mcl-1 FP).

Regarding `CCc1sc2ncnc(OC(Cc3ccccc3)C(=O)O)c2c1-c1ccc(OCC(=O)N2CCCC2)c(Cl)c1C` [Example 391, (2R)-2-[((5Sa)-5-{3-chloro-2-methyl-4-[2-oxo-2-(pyrrolidin-1-yl)ethoxy]phenyl}-6-ethylthieno[2,3-d]pyrimidin-4-yl)oxy]-3-phenylpropanoic acid], the IC50 in test [1] (setting [2]) was 22.1 µM; on Mcl-1 protein (read-out: IC50 (M) Mcl-1 FP), 3.7e-08 M.
